Among the data in patent US20240383908A1, “SYNTHESIS AND APPLICATION OF PHOSPHATASE DEGRADER” (HINOVA PHARMACEUTICALS INC., priority 2021, published 2024) are DC50 values, retold here.

Molecules are shown by their SMILES.

This experiment concerns the target T1, SHP2 protein (Homo sapiens, UniProt Q06124).
T1 sequence (Q06124 1-593): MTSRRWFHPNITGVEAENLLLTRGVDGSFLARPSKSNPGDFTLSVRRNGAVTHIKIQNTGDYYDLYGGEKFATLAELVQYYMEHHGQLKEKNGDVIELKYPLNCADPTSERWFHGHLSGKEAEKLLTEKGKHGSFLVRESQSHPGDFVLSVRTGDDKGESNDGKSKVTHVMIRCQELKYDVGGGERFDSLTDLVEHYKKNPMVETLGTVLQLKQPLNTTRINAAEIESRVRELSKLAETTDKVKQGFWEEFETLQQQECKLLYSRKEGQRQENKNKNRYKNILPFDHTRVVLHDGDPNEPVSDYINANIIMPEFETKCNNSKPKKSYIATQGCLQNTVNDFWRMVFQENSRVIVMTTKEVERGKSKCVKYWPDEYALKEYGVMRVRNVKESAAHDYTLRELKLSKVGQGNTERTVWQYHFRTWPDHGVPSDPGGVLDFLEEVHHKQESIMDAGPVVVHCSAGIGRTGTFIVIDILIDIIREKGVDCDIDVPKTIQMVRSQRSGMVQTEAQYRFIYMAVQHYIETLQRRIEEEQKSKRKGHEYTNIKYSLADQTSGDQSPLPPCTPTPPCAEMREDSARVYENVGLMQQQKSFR
The experiment can be described thus: Degradation activity on SHP2 protein in MIA Paca-2 cells (Western blot, DC50). In kind it is cell-based. Also noted: endogenous in cells; host or cells: MIA Paca-2 cells. Conditions: read-out: Degradation activity for differenct cell lines MIA Paca-2 (DC50). Summed up: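 DC50 is the concentration degrading 50% of SHP2 relative to DMSO control. It was derived by fitting Western blot band densitometry (anti-SHP2, GAPDH reference) from cells exposed 24 h to 0.1–100 nM compound in 0.1% DMSO.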
On to `CC1(N)CCN(c2cnc(Sc3cccc(NC(=O)c4ccc(N5CCC(N6CCN(c7cnc(C(=O)NCc8ccc9c(c8)CN(C8CCC(=O)NC8=O)C9=O)cc7Cl)CC6)CC5)c(F)c4)c3)cn2)CC1` (stereo not shown) [Compound 496], for which the DC50 (usually the concentration giving 50% degradation) is < 100 nM. Then `CC1(N)CCN(c2cnc(Sc3cccc(NC(=O)c4ccc(N5CCC(N6CCN(c7cnc(C(=O)NCc8ccc9c(c8)CN(C8CCC(=O)NC8=O)C9=O)cc7Cl)CC6)CC5)cc4F)c3)cn2)CC1` (stereo not shown) [Compound 497], with < 100 nM.

As to `CC1(N)CCN(c2cnc(Sc3cccc(NC(=O)c4ccc(N5CCC(N6CCN(c7ccc(C(=O)NCc8ccc9c(c8)CN(C8CCC(=O)NC8=O)C9=O)nn7)CC6)CC5)nn4)c3)cn2)CC1` (stereo not shown) [Compound 498], the DC50 was in the range of 100 to 1000 nM.

As to `CC1(N)CCN(c2cnc(Sc3cccc(NC(=O)c4ccc(N5CCC(N6CCN(c7ccc(C(=O)NCc8ccc9c(c8)CN(C8CCC(=O)NC8=O)C9=O)cc7F)CC6)CC5)c(F)c4)c3)cn2)CC1` (stereo not shown) [Compound 499], the DC50 is < 100 nM. Then `CC1(N)CCN(c2cnc(Sc3cccc(NC(=O)c4ccc(N5CCC(N6CCN(c7ccc(C(=O)NCc8ccc9c(c8)CN(C8CCC(=O)NC8=O)C9=O)c(F)c7)CC6)CC5)cc4)c3)cn2)CC1` (stereo not shown) [Compound 502], with < 100 nM. Then `CC1(N)CCN(c2cnc(Sc3cccc(NC(=O)c4ccc(N5CCC(N6CCN(c7ccc(C(=O)NCc8ccc9c(c8)CN(C8CCC(=O)NC8=O)C9=O)c(F)c7)CC6)CC5)c(F)c4)c3)cn2)CC1` (stereo not shown) [Compound 503], with < 100 nM; and `C[C@@H]1OCC2(CCN(c3cnc(Sc4cccc(NC(=O)c5ccc(C6CC(N7CC=C(c8ccc(C(=O)NCc9ccc%10c(c9)CN(C9CCC(=O)NC9=O)C%10=O)nc8)CC7)C6)cc5)c4)cn3)CC2)[C@@H]1N` (stereo partly shown) [Compound 504], with < 100 nM; and `CC1(N)CCN(c2cnc(Sc3cccc(NC(=O)c4ccc(N5CCC(N6CCC(c7ccc(C(=O)NCc8ccc9c(c8)CN(C8CCC(=O)NC8=O)C9=O)cc7)C(F)C6)CC5)c(F)c4)c3)cn2)CC1` (stereo not shown) [Compound 506], with < 100 nM. For `Cc1cc(C(=O)Nc2cccc(Sc3cnc(N4CCC(C)(N)CC4)cn3)c2)ccc1N1CCC(N2CCN(c3nnc(C(=O)NCc4ccc5c(c4)CN(C4CCC(=O)NC4=O)C5=O)cc3Cl)CC2)CC1` (stereo not shown) [Compound 507] the value was < 100 nM; for `CC1(N)CCN(c2cnc(Sc3cccc(NC(=O)c4ccc(N5CCC(N6CCN(c7cnc(C(=O)NCc8ccc9c(c8)CN(C8CCC(=O)NC8=O)C9=O)cc7Cl)CC6)CC5)cc4)c3)cn2)CC1` (stereo not shown) [Compound 508], < 100 nM; for `CC1(N)CCN(c2cnc(Sc3cccc(NC(=O)c4cnc(N5CCC(N6CCN(c7ccc(C(=O)NCc8ccc9c(c8)CN(C8CCC(=O)NC8=O)C9=O)nn7)CC6)CC5)cn4)c3)cn2)CC1` (stereo not shown) [Compound 509], < 100 nM. As for `C[C@@H]1OCC2(CCN(c3cnc(Sc4cccc(NC(=O)c5ccc(N6CCC(N7CCC(c8ccc(C(=O)NCc9ccc%10c(c9)CN(C9CCC(=O)NC9=O)C%10=O)cc8)C(F)C7)CC6)c(F)c5)c4)cn3)CC2)[C@@H]1N` (stereo partly shown) [Compound 510], the DC50 was < 100 nM.

Turning to `CC1(N)CCN(c2cnc(Sc3cccc(NC(=O)c4ccc(N5CCC(N6CC=C(C7CCC(C(=O)NCc8ccc9c(c8)CN(C8CCC(=O)NC8=O)C9=O)CC7)CC6)CC5)c(F)c4)c3)cn2)CC1` (stereo not shown) [Compound 511], the DC50 is < 100 nM. Then `C[C@@H]1OCC2(CCN(c3cnc(Sc4cccc(NC(=O)c5ccc(N6CCC(N7CC=C(C8CCC(C(=O)NCc9ccc%10c(c9)CN(C9CCC(=O)NC9=O)C%10=O)CC8)CC7)CC6)c(F)c5)c4)cn3)CC2)[C@@H]1N` (stereo partly shown) [Compound 512], with 100 to 1000 nM. Then `CC1(N)CCN(c2cnc(Sc3cccc(NC(=O)c4ccc(N5CCC(N6CCN(c7ccc(C(=O)NCc8ccc9c(c8)CN(C8CCC(=O)NC8=O)C9=O)cc7F)CC6)CC5)cc4)c3)cn2)CC1` (stereo not shown) [Compound 513], with < 100 nM; and `C[C@@H]1OCC2(CCN(c3cnc(Sc4cccc(NC(=O)c5ccc(N6CCC(N7CCN(c8ccc(C(=O)NCc9ccc%10c(c9)CN(C9CCC(=O)NC9=O)C%10=O)cc8F)CC7)CC6)c(F)c5)c4)cn3)CC2)[C@@H]1N` (stereo partly shown) [Compound 515], with < 100 nM. With `C[C@@H]1OCC2(CCN(c3cnc(Sc4cccc(NC(=O)c5ccc(N6CCC(N7CC=C(c8ccc(C(=O)NCc9ccc%10c(c9)CN(C9CCC(=O)NC9=O)C%10=O)nc8)CC7)C6)c(F)c5)c4)cn3)CC2)[C@@H]1N` (stereo partly shown) [Compound 516], the DC50 is < 100 nM. Regarding `C[C@@H]1OCC2(CCN(c3cnc(Sc4cccc(NCc5ccc(N6CCC(N7CC=C(c8ccc(C(=O)NCc9ccc%10c(c9)CN(C9CCC(=O)NC9=O)C%10=O)nc8Cl)CC7)CC6)c(F)c5)c4)cn3)CC2)[C@@H]1N` (stereo partly shown) [Compound 518], the DC50 fell in the range of 100 to 1000 nM. For the molecule `C[C@@H]1OCC2(CCN(c3cnc(Sc4cccc(NC(=O)c5ccc(N6CCC(N7CC=C(c8ccc(C(=O)NCc9ccc%10c(c9)CN(C9CCC(=O)NC9=O)C%10=O)nn8)CC7)C6)cc5)c4)cn3)CC2)[C@@H]1N` (stereo partly shown) [Compound 520], the DC50 is < 100 nM.
